# Data from ChEMBL document CHEMBL2429809, “Novel peptide-doxorubucin conjugates for targeting breast cancer cells including the multidrug resistant cells” (J Med Chem, 2013).
# How the values were obtained:
# [1] = test system: HUVEC; test: Cytotoxicity against human HUVEC cells after 48 hrs by MTT assay; assay type: cell-based
# [2] = test system: MDA-MB-435; test: Ratio of IC50 for human MDA-MB-435 cells to IC50 for human MDA-MB-435 cells in presence of verapamil; assay type: functional
# [3] = test system: MCF-10A; test: Cytotoxicity against human MCF10A cells after 48 hrs by MTT assay; assay type: cell-based
# [4] = test system: MCF7; test: Cellular uptake in human MCF7 cells at 5 uM after 2 hrs by FACS analysis in presence of NH2-WxEYAAQkFL-CONH2; assay type: ADME, cell-based; details: mcf7, 2 h
# [5] = test system: MCF-10A; test: Cellular uptake in human MCF10A cells at 5 uM after 2 hrs by FACS analysis; assay type: ADME, cell-based
# [6] = test system: MDA-MB-435; test: Cytotoxicity against doxorubicin-resistant multidrug-resistant human MDA-MB-435 cells after 48 hrs by MTT assay in presence of verapamil; assay type: functional, cell-based; details: MDA-MB-435, 48 h
# [7] = test system: MDA-MB-435; test: Cytotoxicity against human MDA-MB-435 cells after 48 hrs by MTT assay in presence of verapamil; assay type: functional, cell-based; details: MDA-MB-435, 48 h
# [8] = test system: MDA-MB-435; test: Cellular uptake in human MDA-MB-435 cells at 5 uM after 2 hrs by FACS analysis relative to control; assay type: ADME, cell-based; details: mda-mb-435, 2 h
# [9] = test system: MCF7; test: Cytotoxicity against human MCF7 cells after 48 hrs by MTT assay; assay type: functional, cell-based; details: MCF7, 48 h
# [10] = test system: MCF7; test: Cellular uptake in human MCF7 cells at 5 uM after 2 hrs by FACS analysis relative to control; assay type: ADME, cell-based; details: mcf7, 2 h
# [11] = test system: MDA-MB-435; test: Cytotoxicity against human MDA-MB-435 cells after 48 hrs by MTT assay; assay type: functional, cell-based; details: MDA-MB-435, 48 h
# [12] = test system: MDA-MB-435; test: Ratio of IC50 for doxorubicin-resistant multidrug-resistant human MDA-MB-435 cells to IC50 for doxorubicin-resistant multidrug-resistant human MDA-MB-435 cells in presence of verapamil; assay type: functional
# [13] = test system: HUVEC; test: Cellular uptake in human HUVEC cells at 5 uM after 2 hrs by FACS analysis; assay type: ADME, cell-based
# [14] = test system: MDA-MB-435; test: Cellular uptake in doxorubicin-resistant multidrug-resistant human MDA-MB-435 cells at 5 uM after 2 hrs by FACS analysis relative to doxorubicin; assay type: ADME, cell-based; details: mda-mb-435, 2 h
# [15] = test system: MDA-MB-435; test: Cytotoxicity against doxorubicin-resistant multidrug-resistant human MDA-MB-435 cells after 48 hrs by MTT assay; assay type: functional, cell-based; details: MDA-MB-435, 48 h
# [16] = test system: MDA-MB-435; test: Cytotoxicity against doxorubicin-resistant multidrug-resistant human MDA-MB-435 cells after 48 hrs by MTT assay relative to doxorubicin; assay type: functional
# [17] = test system: MDA-MB-435; test: Cellular uptake in doxorubicin-resistant multidrug-resistant human MDA-MB-435 cells at 5 uM after 2 hrs by FACS analysis; assay type: ADME, cell-based; details: mda-mb-435, 2 h
# [18] = Half life in human serum at 100 uM after 48 hrs by RP-HPLC analysis; assay type: ADME, cell-free
Drug uptake [4],Drug uptake [5],Drug uptake [8],Drug uptake [10],Drug uptake [13],fold change (FC) [14],Drug uptake [17],half-life at 100 µM [18] [h],Compound,IC50 [1] [µM],Ratio IC50 [2],IC50 [3] [µM],IC50 [6] [µM],IC50 [7] [µM],IC50 [9] [µM],IC50 [11] [µM],Ratio IC50 [12],IC50 [15] [µM],Ratio IC50 [16]
Active,Active,Active,Active,Active,3,,,CCCC[C@@H](NC(=O)[C@@H](N)Cc1c[nH]c2ccccc12)C(=O)N[C@@H](CCC(=O)O)C(=O)N[C@@H](C)C(=O)N[C@@H](C)C(=O)N[C@@H](Cc1ccc(O)cc1)C(=O)N[C@@H](CCC(N)=O)C(=O)N[C@H](CCCCNC(=O)CCCC(=O)OCC(=O)[C@]1(O)Cc2c(O)c3c(c(O)c2[C@@H](O[C@H]2C[C@H](N)[C@H](O)[C@H](C)O2)C1)C(=O)c1c(OC)cccc1C3=O)C(=O)N[C@@H](Cc1ccccc1)C(=O)N[C@@H](CC(C)C)C(N)=O,50.9,1.3,40.5,14.4,15.5,19.1,18.6,1.3,19.7,
Active,Active,Active,Active,Active,4.7,Active,2,CCCC[C@@H](NC(=O)[C@@H](N)Cc1c[nH]c2ccccc12)C(=O)N[C@@H](CCC(=O)O)C(=O)N[C@@H](C)C(=O)N[C@@H](C)C(=O)N[C@@H](Cc1ccc(O)cc1)C(=O)N[C@@H](CCC(N)=O)C(=O)N[C@H](CCCCNC(=O)CCCC(=O)N[C@H]1C[C@H](O[C@H]2C[C@](O)(C(=O)CO)Cc3c(O)c4c(c(O)c32)C(=O)c2c(OC)cccc2C4=O)O[C@@H](C)[C@H]1O)C(=O)N[C@@H](Cc1ccccc1)C(=O)N[C@@H](CC(C)C)C(N)=O,42.3,1.3,35.1,3.1,0.83,0.9,1.5,1.3,5.4,>4

Compound,Drug uptake [4],Drug uptake [5],Drug uptake [8],Drug uptake [10],Drug uptake [13],fold change (FC) [14],Drug uptake [17],half-life at 100 µM [18] [h],IC50 [1] [µM],Ratio IC50 [2],IC50 [3] [µM],IC50 [6] [µM],IC50 [7] [µM],IC50 [9] [µM],IC50 [11] [µM],Ratio IC50 [12],IC50 [15] [µM],Ratio IC50 [16]
COc1cccc2c1C(=O)c1c(O)c3c(c(O)c1C2=O)C[C@@](O)(C(=O)CO)C[C@@H]3O[C@H]1C[C@H](N)[C@H](O)[C@H](C)O1 [DOXORUBICIN],Active,,,,Active,,,,1.1,,1.2,1.56,0.15,,0.6,,21.9,
